Here are results for 15 compounds from patent US9408899B2, “Vaccines against Toxoplasma gondii” (priority 2010, dated 2016).

Like-named read-outs stand apart in the source and are kept apart here. No end group written: not given here.

One test concerns the target HLA-A*1101 (Homo sapiens, UniProt P04439, A114D/D185E/E176A/F33Y/L180Q/S129P/T187R). Briefly: MHC-peptide binding assay. The settings on record: unit inferred.
Another test addresses HLA-A*0301 (Homo sapiens, UniProt P04439). Briefly: MHC-peptide binding assay. The settings on record: MHC binding affinity; IC50 approximates Kd; unit inferred. An excerpt: (§1) Assays were as described in Sidney, J., et al. Immunome Res 4, 2 (2008).
The target in another test is HLA-A*3001 (Homo sapiens, UniProt P04439, D140H/D185E/E176W/F33S/G80R/H175R/K168Q/R138E/R41S). The test can be described thus: MHC-peptide binding assay. The following applies: MHC binding affinity; IC50 approximates Kd; unit inferred.
Description: as §1

In a further test the target is HLA-A*3101 (Homo sapiens, UniProt P04439, A270S/D185E/E176V/E277Q/F33T/G231S/G80R/H175R/I121M/I218V/I322F/K168Q/L300P/L318F/M331R/P217A/Q94H/R138Q/T323A/T345S/T97I/V358M). The test can be described thus: MHC-peptide binding assay. The settings on record: MHC binding affinity; IC50 approximates Kd; unit inferred.
Description: as §1

Another test addresses HLA-A*3301 (Homo sapiens, UniProt P04439, A270S/D185E/E176V/E277Q/E87N/F33T/G231S/H175R/I121M/I218V/I322F/K168Q/K210R/L300P/L318F/M331R/P217A/Q86R/Q94H/R138Q/T323A/T345S/T97I/V358M/Y195H). The test can be described thus: MHC-peptide binding assay. The following applies: MHC binding affinity; IC50 approximates Kd; unit inferred.
Description: as §1

A further test concerns the target HLA-A*6801 (Homo sapiens, UniProt P04439, A269V/D185E/E176V/E277Q/E87N/F33Y/G231S/I121M/I166T/I218V/L180W/L300P/L318F/N151K/P208A/P217A/Q86R/R169H/T345S). Briefly: MHC-peptide binding assay. The settings on record: MHC binding affinity; IC50 approximates Kd; unit inferred.
Description: as §1

The subject of another test is HLA-A03 supertype. The test can be described thus: MHC-peptide binding assay, number of supertype alleles bound. The following applies: of six HLA-A03 supertype alleles tested. On the set-up: species or system human.
Description: as §1

Test [1] deals with splenocytes from HLA-A*1101 transgenic mice. The test can be described thus: IFN-γ ELISpot with splenocytes of immunized HLA-A*1101 transgenic mice. Type of test: in vivo. The settings on record: for IFN-γ production by splenocytes of lipopeptide-immunized mice: HLA-A*1101 mice immunized twice at three week intervals with lipopeptide in PBS, stimulated with peptides.
Description: As controls, mice were injected with PBS. Mice were vaccinated twice at 3-week intervals.
Murine splenocytes: Mice were euthanized 7 to 14 days after immunization. Spleens were harvested, pressed through a 70 μm screen to form a single-cell suspension, and depleted of erythrocytes with AKC lysis buffer (160 mM NH4Cl, 10 mM KHCO3, 100 μM EDTA).
5×10^5 splenocytes were plated per well.
Both murine and human cells were plated in at least 3 replicate wells for each condition. Results were expressed as number of spot forming cells (SFCs) per 10^6 PBMCs or per 10^6 murine splenocytes.
All mouse experiments were repeated at least twice, with 4-5 mice for each group.
A further test deals with HLA-A*0201 (Homo sapiens, UniProt P04439, D140Y/D185E/D98H/E176V/E277Q/G131W/G231S/I119V/I121R/I166T/I218V/L300P/L318F/N151K/N90K/P208A/P217A/Q86G/Q94H/R138H/R169H/T345S). The test can be described thus: MHC-peptide binding assay (inhibition of binding of radiolabeled standard peptide). The following applies: for IC50: MHC binding assay, measured IC50 approximates Kd, no unit in table, text b40 speaks of nM, read-out: Affinity (c) HLA-A*0201.

Another test has as its target HLA-A*0203 (Homo sapiens, UniProt P04439, A173T/D140Y/D185E/D98H/E277Q/G131W/G231S/I119V/I121R/I166T/I218V/L180W/L300P/L318F/N151K/N90K/P208A/P217A/Q86G/Q94H/R138H/R169H/T345S). The test can be described thus: MHC-peptide binding assay.
For test [2], the system named is Splenic T cells from HLA-A*0201 mice. Briefly: IFN-γ ELISpot with splenocytes of immunized HLA-A*0201 transgenic mice. It is filed as in vivo. The following applies: for IFN-γ production in vitro by T cells from immunized mice: HLA-A*0201 mice immunized with pooled peptides alone, stimulated with the individual peptide; for IFN-γ production from T cells of immunized mice: HLA-A*0201 mice immunized with pooled peptides plus PADRE.
Description: Eleven to fourteen days post immuniztion, spleen cells were isolated and exposed to each individual peptide.
5×10^5 splenocytes were plated per well. All antibodies and reagents used for ELISpot assays were obtained from Mabtech (Cincinnati, Ohio). Cells were plated in at least 3 replicate wells for each condition. Results were expressed as number of spot forming cells (SFCs) per 10^6 PBMCs or per 10^6 murine splenocytes.
Mice were boosted once at a 2-week interval.
Three to five mice from each group were euthanized 7 to 14 days after the last immunization. Spleens were harvested, pressed through a 70 μm screen to form a single-cell suspension, and depleted of erythrocytes with ASK lysis buffer (160 mM NH4Cl, 10 mM KHCO3, 100 μM EDTA).
Each ELISpot experiment was replicated a minimum of twice. P values of ≦0.05 were considered significant.

The next test concerns the target HLA-A*0202 (Homo sapiens, UniProt P04439, D140Y/D185E/D98H/E176V/E277Q/G131W/G231S/I119L/I121R/I166T/I218V/L180W/L300P/L318F/N151K/N90K/P208A/P217A/Q67R/Q86G/Q94H/R138H/R169H/T345S). The test can be described thus: biochemical.
For test [3], the system named is splenocytes from HLA-B*0702 transgenic mice. The settings on record: HF10 administered as lipopeptide with PADRE or with MLA, earlier work; cited from earlier work.
Where [4] appears, read: Table 3, MHC binding assay, read-out: Affinity^b HLA-A*1101.

Description for HLA-A*0202: (§2) Briefly, 1-10 nM of radiolabeled peptides were co-incubated with 1 M-1 nM purified MHC and 1-3 human β2-microglobulin. After 2 days, binding of radiolabeled peptide to corresponding MHC Class I molecule was determined by capturing MHC-peptide complexes on Greiner GREINER® Lumitrac 600 microplates coated with W6/32 antibody and measuring bound counts per minutes using a Topcount microscintillation counter. […] Under conditions used, where [radiolabeled probe]<[MHC] and IC50≧[MHC], measured IC50 values are reasonable approximations of true Kd values.
Description for HLA-A*0203: as §2

Regarding STFWPCLLR, the IC50 at HLA-A*1101 (MHC binding affinity, Table 2b, IC50 approximates Kd, read-out: HLA-A*1101) is 10 nM; on HLA-A*0301, 22 nM; at HLA-A*3001, 1270 nM; at HLA-A*3101, 1.2 nM; at HLA-A*3301 it was 3.4 nM; at HLA-A*6801, 0.97 nM. For the same compound, the “SUPERTYPE ALLELES BOUND” value in the test with HLA-A03 supertype is recorded as 5.
For “LpKS9: lipopeptide: palmitic acid-bearing lysine, PADRE, then KSFKDILPK (SAG1224-232)”, the “IFN-γ production by splenocytes of lipopeptide-immunized mice” value in test [1] is given as “higher IFN-γ production than LpRS9”.
Take GLAAAVVAV [SPA82-90]: the IC50 on HLA-A*0201 turned out to be 9.6 nM.
For the compound FLSLSLLVI [SAG2C38-46], at HLA-A*0201, the Kd (commonly the equilibrium constant for the complex coming apart) is more than 50 nM and the IC50 worked out at 736 nM. In addition, the dissociation constant (Kd) at HLA-A*0203 lay in the range of 50 to 500 nM. In test [2], the “IFN-γ production in vitro by T cells from immunized mice” value is given as “significant IFN-γ production” and the “IFN-γ production from T cells of immunized mice” value (“IFN-γ production from T cells” for short) is recorded as “significant IFN-γ production”. Also, the Kd on HLA-A*0202 fell in the range of 50 to 500 nM.
Turning to AVVSLLRLLK, the IC50 on HLA-A*1101 (setting [4]) worked out at 34 nM; on HLA-A*0301 it was 17 nM; on HLA-A*3001, 8.1 nM; at HLA-A*3101 it was 1300 nM; on HLA-A*3301, 1100 nM; at HLA-A*6801, 94 nM. In addition, the “SUPERTYPE ALLELES BOUND” value in the test with HLA-A03 supertype came out at 4.
On to ITMGSLFFV [SPA12-20], for which the IC50 on HLA-A*0201 came to 0.16 nM.
On to FLLGLLVHV [SAG3375-383], for which, on HLA-A*0201, the IC50 was found to be 6.4 nM. The “IFN-γ production from T cells” value in [2] is given as “significant IFN-γ production”.
As for “LpAM9: lipopeptide: palmitic acid-bearing lysine, PADRE, then AMLTAFFLR (GRA6164-172)”, the “IFN-γ production by splenocytes of lipopeptide-immunized mice” value in test [1] is “higher IFN-γ production than LpRS9”.
For the compound “HPGSVNEFDF (listed as Toxoplasma gondii) [HF10]”, the “immunogenic in HLA-B07 transgenic mice” value in test [3] is recorded as “not immunogenic”.
For the compound SSAYVFSVK, the IC50 is 10 nM on HLA-A*1101 (setting [4]); 12 nM on HLA-A*0301; 1830 nM on HLA-A*3001; 97 nM at HLA-A*3101; 181 nM on HLA-A*3301; 2.1 nM on HLA-A*6801. The “SUPERTYPE ALLELES BOUND” value with HLA-A03 supertype worked out at 5.
With `CC(C)C[C@H](NC(=O)[C@H](CC(C)C)NC(=O)[C@H](CC(=O)O)NC(=O)[C@H](CCCCN)NC(=O)[C@H](Cc1ccccc1)NC(=O)[C@H](CO)NC(=O)[C@@H](N)CCCNC(=N)N)C(=O)N[C@@H](CCCCN)C(=O)N[C@@H](CCCCN)C(=O)O`, in [1] (HLA-A*1101 mice immunized with a mixture of peptides and adjuvants), the “IFN-γ production on stimulation of spleen cells with the peptide” value is recorded as “not present”.
For FLTDYIPGA [SAG3136-144], the IC50 at HLA-A*0201 came to 0.7 nM.
For FVIFACNFV [SAG2X44-52], the IC50 on HLA-A*0201 is 34 nM. Besides, the “IFN-γ production from T cells” value in [2] is listed as “significant IFN-γ production”.
FMIVSISLV [SAG2X351-359]: at HLA-A*0201, the IC50 was determined as 16 nM. Further, in [2], the “IFN-γ production from T cells” value is “significant IFN-γ production”.
Consider FMIAFISCFA [SAG2D180-189], for which the IC50 on HLA-A*0201 came out at 32 nM. Also, in test [2], the “IFN-γ production in vitro by T cells from immunized mice” value is listed as “significant IFN-γ production” and the “IFN-γ production from T cells” value is “significant IFN-γ production”.
